The subject of data set [1] is kidney disease model rats. Kind of data set: Action to lower blood pressure in kidney disease model rats (tail cuff). Type of data set: in vivo, Sprague-Dawley female rats. Particulars: systolic, average of 8 rats, 20 mg/kg with drinking water, two days after administration; control 210. The protocol:
(§1) The compounds of the present invention and the reference substance were administered with drinking water to kidney disease model rats, and the action of lowering the blood pressure was observed. The kidney disease model rats were prepared by a ligature of branches of renal artery in accordance with a conventional method. Namely, the left hilum renalis of Sprague-Dawley female rats was exposed under anesthesia, and one of four secondary branches of the renal artery was left unligated, while the remaining three branches were ligated, respectively. After a week, the hilum renalis (artery, vein, and ureter) of the right kidney were further ligated to thereby prepare rats whose renal function was lowered to approximately 1/8 of the normal function. Each group consisted of eight rats. The drugs to be tested (20 mg/kg) were administered to each administering group, and only water was administered to a control group. Two days after the administration, the systolic blood pressure was measured by the tail cuff method using a blood pressure measuring apparatus (UR5000; Ueda).

Data set [2] in a line: Oral absorption (amount of compound in rat serum by HPLC, area under curve). As to conditions: single dosage 160 mg/kg in water, 0.5 to 24 hours, average of 3 rats. It counts as in vivo, Sprague-Dawley female rats. Here is the method:
Twelve-week-old Sprague-Dawley female rats (3 rats per group) were bred for acclimation for a week. Then, the compounds of the present invention and a reference substrate were dissolved in water, and orally administered to the rats in a single dosage (160 mg/kg). After 0.5 hour, 1 hour, 2 hours, 4 hours, 6 hours, 8 hours, and 24 hours, the amounts of each compound (ng) per 1 ml of serum were measured using HPLC. Curves were obtained from the relation between an elapsed time after administration and the amount of the compound in serum at each elapsed time, respectively, and an average of the areas under the curves was calculated.
As a reference substance, Compound No. 184 disclosed in Japanese Unexamined Patent Publication (Kokai) No. 8-48651 was used. Compound No. 184 corresponds to the compound of the formula (I) wherein R^1 =nBu, A=N, Z=C, R^2 =CO, R^3 =NC4 H8 O, R^4 =H, R^5 =Me, and R^6 =Me.

The test system of data set [3] is kidney disease model rats. Kind of data set: Survival time of kidney diseased animals. It counts as in vivo, Sprague-Dawley female rats. As to conditions: 20 mg/kg/day with drinking water, observation period eight weeks (upper limit); control 5.0. Here is the method:
as §1
The kidney disease model rats were prepared as in Example 54. Twenty-two groups (8 rats per group) were prepared in a manner such that there was no major difference between the groups in the serum creatinine value and the blood urea nitrogen value indicating renal function. The rats in each group were allowed to freely take up food. […] To the rats in the control group, only water was administered every day. If kidney diseases are aggravated, the rat will die of uremia. Thus, the survival time was observed as a comprehensive indication of the improvement of the effect on the kidney diseases. The observation period was eight weeks. Thus if all rats survived, the average survival time is eight weeks, and is an upper limit.

Data set [4] deals with kidney disease model rats. Kind of data set: Renal function indicatory value in kidney disease model rats. As to conditions: 20 mg/kg/day with drinking water, six weeks; for Creatinine clearance: 24 hours urine, control 0.22; for Creatinine / Blood urea nitrogen: serum; for Creatinine: control 2.0; for Blood urea nitrogen: control 100. Type of data set: in vivo, Sprague-Dawley female rats. The protocol: as §1, with “The” for “The compounds of the present invention and the reference substance were administered with drinking water to kidney disease model rats, and the action of lowering the blood pressure was observed. The”
The rats in each group were allowed to freely take up food. […] To the rats in the control group, only water was administered every day. After six weeks, 0.2 ml of blood was collected from the carotid artery of the rats under anesthesia, and centrifuged to obtain serum. Using 25 μl of the serum, the serum creatinine (Scr) was measured by a creatinine analytical instrument (Beckman). Using 10 μl of the serum, the blood urea nitrogen (BUN) was measured by a BUN analytical instrument (Beckman). The creatinine clearance was evaluated as follows:
After the serum creatinine measurement, rats were placed in urinary metabolic cages for 24 hours to collect urine. A urinary creatine concentration (Ucr) was measured by a creatinine analytical instrument, and a total volume of urination (Uvol) was also measured. The creatinine clearance (CCr) was calculated by the following formula: [formula]

In data set [5] the target is T1, angiotensin II receptor subtype 1 (AT1) (Oryctolagus cuniculus, UniProt P34976).
T1 construct: receptor : from adrenal glands in rabbits; from tissue; host or cells: rabbit adrenal glands
T1 sequence (P34976 1-359): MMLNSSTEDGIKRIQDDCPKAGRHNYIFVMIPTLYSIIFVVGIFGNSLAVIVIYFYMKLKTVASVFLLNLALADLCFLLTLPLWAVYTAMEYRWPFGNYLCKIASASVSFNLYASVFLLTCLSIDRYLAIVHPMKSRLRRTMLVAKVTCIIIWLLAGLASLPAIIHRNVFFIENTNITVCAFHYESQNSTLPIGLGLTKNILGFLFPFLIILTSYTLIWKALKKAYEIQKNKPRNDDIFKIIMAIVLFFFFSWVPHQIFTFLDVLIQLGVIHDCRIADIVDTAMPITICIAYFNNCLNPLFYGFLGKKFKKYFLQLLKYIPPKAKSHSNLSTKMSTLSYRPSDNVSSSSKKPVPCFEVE
Kind of data set: Binding to receptors: angiotensin II receptor subtype 1 (AT1). Set-up: species or system rabbits (adrenal glands). Particulars: rabbit adrenal glands, tracer 3H-angiotensin II. The protocol: In this Example, the affinity to the angiotensin II receptor subtype 1 or subtype 2 was evaluated by a binding assay in accordance with the method described in Biochem. Pharmacol., 33, 4057-4062 (1984).
Specifically, the measurement of the total binding in the presence of each drug was performed as follows:
A mixture (final volume=0.25 ml) of a drug in a given concentration (the drug was dissolved in DMSO, and diluted to a double volume with a buffer attached to a drug discovery system to prepare a sample for the assay; 0.025 ml), a tracer (0.025 ml), and receptors (0.2 ml) was incubated [in the case of the angiotensin II receptor subtype 1 (AT1), at room temperature for 3 hours, and in the case of the subtype 2 (AT2), at 37° C. for 1 hour]. Then, the reaction mixture was filtered with suction (GF/C filter was used in AT1, and GF/B filter was used in AT2). The filter papers after filtration with suction (the tracer bound to the receptors) were counted by a γ-well counter (ARC-500, Aloka). The non-specific bindings were measured by repeating the above method, except that a large excess amount of a displacer was added. The specific binding of the drug in the given concentration was calculated by subtracting the non-specific binding from the total binding, respectively.
receptor : from adrenal glands in rabbits
tracer : ^3 Hangiotensin II

Take `CCCCC(=O)N(Cc1ccc(C(=O)OCCN(C)C)cc1)c1cc(C(=O)N2CCOCC2)ccc1N(C)C` [Compound No. 1, 4-dimethylamino-3-N-[[[4-(2'-dimethylaminoethoxycarbonyl)phenyl]methyl]valeramido]benzoic acid morpholide]: in data set [1], the “Blood Pressure” value is 205 mmHg. For the same compound, the AUC at 24 h in data set [2] was determined as 13900 ng·h/mL. In addition, the Average survival time in data set [3] came to 7.5 weeks. Moreover, in data set [4], the Creatinine clearance is 0.47 mL/min, the Creatinine is 1.2 mg/dL and the Blood urea nitrogen was determined as 62 mg/dL. Moreover, in data set [5], 100 µM produced 10% inhibition.

Consider `CCCCC(=O)N(Cc1ccc(C(=O)OCCCN(C)C)cc1)c1cc(C(=O)N2CCOCC2)ccc1N(C)C` [Compound No. 2, 4-dimethylamino-3-N-[[[4-(3'-dimethylaminopropoxycarbonyl)phenyl]methyl]valeramido]benzoic acid morpholide], for which, in data set [1], the “Blood Pressure” value was determined as 200 mmHg. Moreover, the AUC at 24 h in data set [2] stood at 10700 ng·h/mL. The compound also came in with an Average survival time in data set [3] of 6.9 weeks. In data set [4], this compound showed a Creatinine clearance of 0.33 mL/min, a Creatinine of 1.3 mg/dL and a Blood urea nitrogen of 78 mg/dL. The inhibition at 100 µM in data set [5] stood at 14%.

For `CCCCC(=O)N(Cc1ccc(C(=O)OCCCN)cc1)c1cc(C(=O)N2CCOCC2)ccc1N(C)C` [Compound No. 3, 3-N-[[[4-(3'-aminopropoxycarbonyl)phenyl]methyl]valeramido]-4-dimethylaminobenzoic acid morpholide], the “Blood Pressure” value in data set [1] turned out to be 203 mmHg. In data set [2], this compound showed an AUC at 24 h of 9530 ng·h/mL. The Average survival time in data set [3] worked out at 6.9 weeks. For the same compound, in data set [4], the Creatinine clearance was 0.33 mL/min, the Creatinine is 1.3 mg/dL and the Blood urea nitrogen was 78 mg/dL. This compound gave an inhibition at 100 µM in data set [5] of 0%.

Turning to `CCCCC(=O)N(Cc1ccc(C(=O)OCCN(C)C)cc1)c1cc(C(=O)N2CCOCC2)ccc1C(C)C` [Compound No. 6, 3-N-[[[4-(2'-dimethylaminoethoxycarbonyl)phenyl]methyl]valeramido]-4-i-propylbenzoic acid morpholide], the “Blood Pressure” value in data set [1] turned out to be 209 mmHg. In data set [2], this compound yielded an AUC at 24 h of 34700 ng·h/mL. The same compound registered an Average survival time in data set [3] of 7.0 weeks. In data set [4], the Creatinine clearance was 0.33 mL/min, the Creatinine is 1.3 mg/dL and the Blood urea nitrogen amounted to 75 mg/dL. This compound displayed an inhibition at 100 µM in data set [5] of 11%.

With `CCCCC(=O)N(Cc1ccc(C(=O)OCCCN(C)C)cc1)c1cc(C(=O)N2CCOCC2)ccc1C(C)C` [Compound No. 7, 3-N-[[[4-(3'-dimethylamino-1'-propoxycarbonyl)phenyl]methyl]valeramido]-4-i-propylbenzoic acid morpholide], in data set [1], the “Blood Pressure” value was 206 mmHg. In data set [2], this compound had an AUC at 24 h of 14000 ng·h/mL. Besides, the Average survival time in data set [3] was found to be 6.9 weeks. In data set [4], this compound displayed a Creatinine clearance of 0.32 mL/min, a Creatinine of 1.4 mg/dL and a Blood urea nitrogen of 76 mg/dL. In data set [5], this compound showed an inhibition at 100 µM of 14%.

On to `CCCCC(=O)N(Cc1ccc(C(=O)OCCN(CC)CC)cc1)c1cc(C(=O)N2CCOCC2)ccc1C(C)C` [Compound No. 8, 3-N-[[[4-(2'-diethylaminoethoxycarbonyl)phenyl]methyl]valeramido]-4-i-propylbenzoic acid morpholide], for which, in data set [1], the “Blood Pressure” value worked out at 203 mmHg. The compound also had an area under the curve (AUC) at 24 h in data set [2] of 24600 ng·h/mL. The compound further displayed an Average survival time in data set [3] of 6.9 weeks. In addition, in data set [4], the Creatinine clearance was 0.35 mL/min, the Creatinine worked out at 1.5 mg/dL and the Blood urea nitrogen stood at 78 mg/dL. In data set [5], this compound displayed an inhibition at 100 µM of 11%.

On to `CCCCC(=O)N(Cc1ccc(C(=O)OCCN2CCOCC2)cc1)c1cc(C(=O)N2CCOCC2)ccc1C(C)C` [Compound No. 9, 3-N-[[[4-(2'-morpholinoethoxycarbonyl)phenyl]methyl]valeramido]-i-propylbenzoic acid morpholide], for which the “Blood Pressure” value in data set [1] was found to be 207 mmHg. The AUC at 24 h in data set [2] was found to be 50300 ng·h/mL. Also, the Average survival time in data set [3] came out at 6.9 weeks. In data set [4], this compound showed a Creatinine clearance of 0.31 mL/min, a Creatinine of 1.6 mg/dL and a Blood urea nitrogen of 83 mg/dL. In data set [5], this compound returned an inhibition at 100 µM of 13%.

Turning to `CCCCCCC(=O)N(Cc1ccc(C(=O)O)cc1)c1cc(C(=O)N2CCN(CCC)CC2)ccc1N(C)C` [Compound No. 12, 4-dimethylamino-3-N-[[(4-carboxyphenyl)methyl]n-heptanamido]benzoic acid 4'-n-propyl piperazide], the “Blood Pressure” value in data set [1] amounted to 202 mmHg. Moreover, the AUC at 24 h in data set [2] came out at 32200 ng·h/mL. This compound also displayed an Average survival time in data set [3] of 7.0 weeks. In data set [4], this compound registered a Creatinine clearance of 0.35 mL/min, a Creatinine of 1.3 mg/dL and a Blood urea nitrogen of 80 mg/dL. This compound registered an inhibition at 100 µM in data set [5] of 0%.

`CCCCCCC(=O)N(Cc1ccc(C(=O)O)cc1)c1cc(C(=O)N2CCN(C)CC2)ccc1N(C)C` [Compound No. 13, 3-[[(4-carboxyohenyl)methyl]n-heptanamido]-4-dimethylaminobenzoic acid 4'-methylpiperazide]: the “Blood Pressure” value in data set [1] was 208 mmHg. In data set [2], this compound yielded an AUC at 24 h of 1460 ng·h/mL. Besides, the Average survival time in data set [3] turned out to be 6.9 weeks. In data set [4], this compound showed a Creatinine clearance of 0.32 mL/min, a Creatinine of 1.5 mg/dL and a Blood urea nitrogen of 77 mg/dL. In addition, the inhibition at 100 µM in data set [5] worked out at 0%.

The record behind these values is US5863913A, “Aromatic compound and pharmaceutical composition” (Kureha Chemical Industry Co., Ltd., priority 1996, dated 1999).
